Laboratory results from patent US20260193264A1, “BENZOYPARAZINE PYRAZINES AND THEIR USES” (FOGHORN THERAPEUTICS INC., priority 2022, published 2026).

Legend:
[1] = target: T1, HiBiT-BRM fusion protein in stable HeLa cell line (Homo sapiens, UniProt P51531); assay: HiBiT-BRM cell-based degradation assay (Nano-Glo HiBiT Lytic Detection, 24 h); parameters: DC50: scale not given here; conditions: HeLa HiBiT-BRM cells; for DC50: read-out: BRM HiBit Degradation IC50; for BRM HiBit Degradation Maximum (%): top dose 30 μM
T1 construct: expressed in transfected cells
In short: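 Luminescence from HiBiT/LgBiT complementation after lysis reports remaining HiBiT-BRM in stable HeLa cells exposed to compound for 24 h. Dosing used 3-fold serial dilutions, 10 points, 30 μM top final concentration. DMSO and a 2 μM BRM/BRG1 degrader standard defined 0% and 100% degradation.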

[2] = target: T2, HiBit-BRG1 fusion protein in stable HeLa cell line expressing HiBit-BRG1 and LgBit (Homo sapiens, UniProt P51532); assay: HiBiT-BRG1 cell-based degradation assay (Nano-Glo HiBiT, 24 h); conditions: HeLa HiBit-BRG1/LgBit cells; for Dmax: top dose 30 μM, read-out: BRG1 HiBit Degradation Maximum (%); for DC50: read-out: BRMG1 HiBit Degradation IC50
T2 construct: expressed in transfected cells
In short: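 Stable HeLa line co-expressing HiBiT-BRG1 and LgBiT, compound-treated 24 h; luminescence read after Nano-Glo HiBiT lytic reagent. % degradation normalised between DMSO (high control) and 2 μM reference BRM/BRG1 degrader (low control).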

T1 sequence (P51531 whole entry, the tested form may be a part): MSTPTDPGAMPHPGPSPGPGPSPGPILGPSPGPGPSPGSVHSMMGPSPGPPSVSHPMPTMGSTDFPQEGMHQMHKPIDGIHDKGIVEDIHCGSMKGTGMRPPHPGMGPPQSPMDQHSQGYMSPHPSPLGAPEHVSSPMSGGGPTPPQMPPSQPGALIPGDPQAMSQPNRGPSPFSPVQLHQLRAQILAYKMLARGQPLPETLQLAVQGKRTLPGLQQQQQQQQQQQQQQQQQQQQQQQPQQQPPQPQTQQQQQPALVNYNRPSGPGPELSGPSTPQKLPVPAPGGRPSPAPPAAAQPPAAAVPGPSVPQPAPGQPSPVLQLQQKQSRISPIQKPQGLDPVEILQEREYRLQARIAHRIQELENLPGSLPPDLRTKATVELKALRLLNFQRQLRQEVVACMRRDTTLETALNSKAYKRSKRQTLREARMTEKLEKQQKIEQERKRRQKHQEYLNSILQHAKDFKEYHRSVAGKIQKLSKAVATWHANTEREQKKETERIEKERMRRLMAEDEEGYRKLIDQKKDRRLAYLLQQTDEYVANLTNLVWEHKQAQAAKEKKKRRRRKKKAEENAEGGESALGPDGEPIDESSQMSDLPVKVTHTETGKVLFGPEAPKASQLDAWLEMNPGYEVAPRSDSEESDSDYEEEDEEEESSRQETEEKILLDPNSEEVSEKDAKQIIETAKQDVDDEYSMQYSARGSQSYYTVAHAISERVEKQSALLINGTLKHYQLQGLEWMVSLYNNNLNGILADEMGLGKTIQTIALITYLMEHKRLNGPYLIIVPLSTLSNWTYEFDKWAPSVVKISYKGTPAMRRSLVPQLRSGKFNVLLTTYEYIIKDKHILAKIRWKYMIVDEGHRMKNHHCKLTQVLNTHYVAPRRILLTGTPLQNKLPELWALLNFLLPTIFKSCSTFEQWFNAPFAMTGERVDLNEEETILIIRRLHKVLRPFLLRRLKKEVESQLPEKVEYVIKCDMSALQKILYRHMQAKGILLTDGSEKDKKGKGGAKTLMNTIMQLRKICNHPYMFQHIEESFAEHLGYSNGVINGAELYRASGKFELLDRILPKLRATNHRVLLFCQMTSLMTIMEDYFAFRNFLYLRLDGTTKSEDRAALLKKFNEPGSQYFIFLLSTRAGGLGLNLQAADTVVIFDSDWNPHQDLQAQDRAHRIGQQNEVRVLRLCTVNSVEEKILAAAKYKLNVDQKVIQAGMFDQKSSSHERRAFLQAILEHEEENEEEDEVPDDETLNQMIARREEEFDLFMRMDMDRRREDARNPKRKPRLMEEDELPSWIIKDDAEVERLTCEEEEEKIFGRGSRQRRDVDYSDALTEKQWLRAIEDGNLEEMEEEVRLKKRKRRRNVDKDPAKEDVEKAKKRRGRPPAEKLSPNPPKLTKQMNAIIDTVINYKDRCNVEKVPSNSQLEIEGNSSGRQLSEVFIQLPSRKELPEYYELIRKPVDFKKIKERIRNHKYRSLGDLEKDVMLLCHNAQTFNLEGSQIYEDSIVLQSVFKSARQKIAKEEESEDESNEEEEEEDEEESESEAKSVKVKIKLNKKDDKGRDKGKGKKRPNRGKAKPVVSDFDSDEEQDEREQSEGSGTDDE
T2 sequence (P51532 whole entry, the tested form may be a part): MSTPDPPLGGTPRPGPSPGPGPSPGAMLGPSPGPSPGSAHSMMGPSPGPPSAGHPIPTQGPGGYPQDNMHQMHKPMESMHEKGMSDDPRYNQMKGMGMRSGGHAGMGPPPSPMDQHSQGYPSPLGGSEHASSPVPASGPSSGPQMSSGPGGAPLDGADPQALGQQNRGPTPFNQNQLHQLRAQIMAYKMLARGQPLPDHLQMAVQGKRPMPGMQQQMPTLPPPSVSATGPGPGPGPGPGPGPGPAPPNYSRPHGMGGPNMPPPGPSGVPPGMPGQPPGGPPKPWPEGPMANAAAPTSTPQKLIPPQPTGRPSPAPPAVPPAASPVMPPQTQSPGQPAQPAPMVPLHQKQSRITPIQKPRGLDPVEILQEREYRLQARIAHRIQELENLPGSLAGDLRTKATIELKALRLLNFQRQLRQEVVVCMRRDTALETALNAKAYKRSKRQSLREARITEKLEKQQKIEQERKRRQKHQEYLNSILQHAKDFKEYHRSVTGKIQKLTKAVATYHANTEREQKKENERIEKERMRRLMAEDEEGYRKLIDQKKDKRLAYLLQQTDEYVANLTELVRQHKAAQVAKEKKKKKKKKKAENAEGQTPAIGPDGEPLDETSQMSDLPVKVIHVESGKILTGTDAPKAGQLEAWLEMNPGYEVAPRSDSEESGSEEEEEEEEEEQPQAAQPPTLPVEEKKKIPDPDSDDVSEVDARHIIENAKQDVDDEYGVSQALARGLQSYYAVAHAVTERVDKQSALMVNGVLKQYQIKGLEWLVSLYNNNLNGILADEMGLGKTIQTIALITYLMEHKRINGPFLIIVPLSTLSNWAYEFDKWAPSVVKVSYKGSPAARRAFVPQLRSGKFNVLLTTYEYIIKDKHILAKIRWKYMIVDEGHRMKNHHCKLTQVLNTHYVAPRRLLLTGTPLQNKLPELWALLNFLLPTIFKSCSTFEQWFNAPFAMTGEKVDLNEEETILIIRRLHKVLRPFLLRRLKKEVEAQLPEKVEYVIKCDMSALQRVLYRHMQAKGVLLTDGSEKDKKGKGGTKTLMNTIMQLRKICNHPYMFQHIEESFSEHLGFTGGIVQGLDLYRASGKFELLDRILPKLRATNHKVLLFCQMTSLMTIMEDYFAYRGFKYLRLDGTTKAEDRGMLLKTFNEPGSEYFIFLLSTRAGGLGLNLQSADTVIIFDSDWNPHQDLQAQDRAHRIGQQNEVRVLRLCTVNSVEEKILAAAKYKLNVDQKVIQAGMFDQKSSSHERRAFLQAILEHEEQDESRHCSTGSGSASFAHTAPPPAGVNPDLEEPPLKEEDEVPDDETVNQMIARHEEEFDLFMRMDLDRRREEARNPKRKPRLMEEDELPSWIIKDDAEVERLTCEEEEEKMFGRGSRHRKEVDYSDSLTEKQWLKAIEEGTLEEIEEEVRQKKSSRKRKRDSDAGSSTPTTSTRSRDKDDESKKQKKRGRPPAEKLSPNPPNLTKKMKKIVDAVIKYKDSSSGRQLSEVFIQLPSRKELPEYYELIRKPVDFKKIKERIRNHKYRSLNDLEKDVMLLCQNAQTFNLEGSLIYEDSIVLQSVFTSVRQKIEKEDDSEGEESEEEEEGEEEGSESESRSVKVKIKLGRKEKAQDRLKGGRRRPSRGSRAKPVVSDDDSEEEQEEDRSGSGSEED

Row | SMILES | DC50 [1] [nM] | Dmax [2] [%] | DC50 [2] [nM] | BRM HiBit Degradation Maximum (%) [1]
1 | CC(C)[C@@H](C(=O)N1C[C@H](O)C[C@H]1C(=O)N[C@@H](C)c1ccccc1)c1cc(N2CC[C@H](c3ccc4cc(-c5ccccc5O)nnc4c3)C2)no1 [Compound 118, (2S,4R)-4-hydroxy-1-((R)-2-(3-((R)-3-(3-(2-hydroxyphenyl)cinnolin-7-yl)pyrrolidin-1-yl)isoxazol-5-yl)-3-methylbutanoyl)-N-((S)-1-phenylethyl)pyrrolidine-2-carboxamide] | > 10 | < 50 |  | A (“A” indicates maximum degradation ≥75%)
2 | CC(C)C(C(=O)N1C[C@H](O)C[C@H]1C(=O)NCC12CC(C1)C2)c1cc(N2CC3(CN(c4ccc5cc(-c6ccccc6O)nnc5c4)C3)C2)no1 (stereo partly drawn) [Compound 119, (2S,4R)-N-(bicyclo[1.1.1]pentan-1-ylmethyl)-4-hydroxy-1-(2-(3-(6-(3-(2-hydroxyphenyl)cinnolin-7-yl)-2,6-diazaspiro[3.3]heptan-2-yl)isoxazol-5-yl)-3-methylbutanoyl)pyrrolidine-2-carboxamide] | > 10 | < 50 |  | A (“A” indicates maximum degradation ≥75%)
3 | CC(C)C(C(=O)N1C[C@H](O)C[C@H]1C(=O)N[C@@H](C)c1ccccn1)c1cc(N2CC3(CN(c4ccc5cc(-c6ccccc6O)nnc5c4)C3)C2)no1 (stereo partly drawn) [Compound 120, (2S,4R)-4-hydroxy-1-(2-(3-(6-(3-(2-hydroxyphenyl)cinnolin-7-yl)-2,6-diazaspiro[3.3]heptan-2-yl)isoxazol-5-yl)-3-methylbutanoyl)-N-((S)-1-(pyridin-2-yl)ethyl)pyrrolidine-2-carboxamide] | > 10 | < 50 |  | A (“A” indicates maximum degradation ≥75%)
4 | Cc1ncsc1-c1ccc([C@H](C)NC(=O)[C@@H]2C[C@@H](O)CN2C(=O)[C@@H](c2cc(N3CCN([C@@H]4CCN(c5ccc6nnc(-c7ccccc7O)cc6c5)CC4(F)F)CC3)no2)C(C)C)cc1 [Compound 124, (2S,4R)-1-((R)-2-(3-(4-((R)-3,3-difluoro-1-(3-(2-hydroxyphenyl)cinnolin-6-yl)piperidin-4-yl)piperazin-1-yl)isoxazol-5-yl)-3-methylbutanoyl)-4-hydroxy-N-((S)-1-(4-(4-methylthiazol-5-yl)phenyl)ethyl)pyrrolidine-2-carboxamide] | < 10 | > 75 | < 10 | A (“A” indicates maximum degradation ≥75%)
5 | Cc1ncsc1-c1ccc([C@H](C)NC(=O)[C@@H]2C[C@@H](O)CN2C(=O)[C@@H](c2cc(N3CC4(CN(c5cc(C6CC6)c6cc(-c7ccccc7O)nnc6c5)C4)C3)no2)C(C)C)cc1 [Compound 125, (2S,4R)-1-((R)-2-(3-(6-(5-cyclopropyl-3-(2-hydroxyphenyl)cinnolin-7-yl)-2,6-diazaspiro[3.3]heptan-2-yl)isoxazol-5-yl)-3-methylbutanoyl)-4-hydroxy-N-((S)-1-(4-(4-methylthiazol-5-yl)phenyl)ethyl)pyrrolidine-2-carboxamide] | < 10 | < 50 |  | A (“A” indicates maximum degradation ≥75%)
6 | Cc1ncsc1-c1ccc([C@H](C)NC(=O)[C@@H]2C[C@@H](O)CN2C(=O)[C@@H](c2cc(N3CC4(C3)CN(c3cc5nnc(-c6ccccc6O)cc5cc3C3CC3)C4)no2)C(C)C)cc1 [Compound 126, (2S,4R)-1-((R)-2-(3-(6-(6-cyclopropyl-3-(2-hydroxyphenyl)cinnolin-7-yl)-2,6-diazaspiro[3.3]heptan-2-yl)isoxazol-5-yl)-3-methylbutanoyl)-4-hydroxy-N-((S)-1-(4-(4-methylthiazol-5-yl)phenyl)ethyl)pyrrolidine-2-carboxamide] | < 10 | > 75 | < 10 | A (“A” indicates maximum degradation ≥75%)
7 | Cc1ncsc1-c1ccc([C@H](C)NC(=O)[C@@H]2C[C@@H](O)CN2C(=O)[C@@H](c2cc(N3CC4(CN(c5ccc6cc(-c7ccccc7O)nnc6c5)CCO4)C3)no2)C(C)C)cc1 [Compound 127, (2S,4R)-4-hydroxy-1-((R)-2-(3-(8-(3-(2-hydroxyphenyl)cinnolin-7-yl)-5-oxa-2,8-diazaspiro[3.5]nonan-2-yl)isoxazol-5-yl)-3-methylbutanoyl)-N-((S)-1-(4-(4-methylthiazol-5-yl)phenyl)ethyl)pyrrolidine-2-carboxamide] | < 10 | > 75 | < 10 | A (“A” indicates maximum degradation ≥75%)
8 | Cc1ncsc1-c1ccc([C@H](C)NC(=O)[C@@H]2C[C@@H](O)CN2C(=O)[C@H](C(C)C)n2cc(-c3ccc4nnc(-c5ccccc5O)cc4c3)nn2)cc1 [Compound 128, (2S,4R)-4-hydroxy-1-((S)-2-(4-(3-(2-hydroxyphenyl)cinnolin-6-yl)-1H-1,2,3-triazol-1-yl)-3-methylbutanoyl)-N—((S)-1-(4-(4-methylthiazol-5-yl)phenyl)ethyl)pyrrolidine-2-carboxamide] | < 10 | > 75 | < 10 | A (“A” indicates maximum degradation ≥75%)
9 | Cc1ncsc1-c1ccc([C@H](C)NC(=O)[C@@H]2C[C@@H](O)CN2C(=O)[C@@H](c2cc(N3CC4(CN(c5ccc6nnc(-c7ccccc7O)cc6c5)CCO4)C3)no2)C(C)C)cc1 [Compound 129, (2S,4R)-4-hydroxy-1-((R)-2-(3-(8-(3-(2-hydroxyphenyl)cinnolin-6-yl)-5-oxa-2,8-diazaspiro[3.5]nonan-2-yl)isoxazol-5-yl)-3-methylbutanoyl)-N-((S)-1-(4-(4-methylthiazol-5-yl)phenyl)ethyl)pyrrolidine-2-carboxamide] | < 10 | < 50 |  | A (“A” indicates maximum degradation ≥75%)

Now from value to molecule, other results behind:

Row | DC50 [1] [nM] | Dmax [2] [%] | DC50 [2] [nM] | SMILES | BRM HiBit Degradation Maximum (%) [1]
10 | < 10 | < 50 |  | CC(C)[C@@H](C(=O)N1C[C@H](O)C[C@H]1C(=O)N[C@@H](C)c1ccccc1)c1cc(N2CC[C@@H](c3ccc4cc(-c5ccccc5O)nnc4c3)C2)no1 [Compound 116, (2S,4R)-4-hydroxy-1-((R)-2-(3-((S)-3-(3-(2-hydroxyphenyl)cinnolin-7-yl)pyrrolidin-1-yl)isoxazol-5-yl)-3-methylbutanoyl)-N-((S)-1-phenylethyl)pyrrolidine-2-carboxamide] | A (“A” indicates maximum degradation ≥75%)
11 | < 10 | < 50 |  | Cc1ncsc1-c1ccc(CNC(=O)[C@@H]2C[C@@H](O)CN2C(=O)C(c2cc(N3CC4(CN(c5ccc6cc(-c7ccccc7O)nnc6c5)C4)C3)no2)C(C)C)cc1 (stereo partly drawn) [Compound 117, (2S,4R)-4-hydroxy-1-(2-(3-(6-(3-(2-hydroxyphenyl)cinnolin-7-yl)-2,6-diazaspiro[3.3]heptan-2-yl)isoxazol-5-yl)-3-methylbutanoyl)-N-(4-(4-methylthiazol-5-yl)benzyl)pyrrolidine-2-carboxamide] | A (“A” indicates maximum degradation ≥75%)
12 | < 10 | > 75 | < 10 | Cc1cc2cc(-c3ccccc3O)nnc2cc1N1CC2(CN(c3cc([C@H](C(=O)N4C[C@H](O)C[C@H]4C(=O)N[C@@H](C)c4ccc(-c5scnc5C)cc4)C(C)C)on3)C2)C1 [Compound 121, (2S,4R)-4-hydroxy-1-((R)-2-(3-(6-(3-(2-hydroxyphenyl)-6-methylcinnolin-7-yl)-2,6-diazaspiro[3.3]heptan-2-yl)isoxazol-5-yl)-3-methylbutanoyl)-N-((S)-1-(4-(4-methylthiazol-5-yl)phenyl)ethyl)pyrrolidine-2-carboxamide] | A (“A” indicates maximum degradation ≥75%)
13 | < 10 | > 75 | < 10 | Cc1ncsc1-c1ccc([C@H](C)NC(=O)[C@@H]2C[C@@H](O)CN2C(=O)[C@@H](c2cc(N3CCC4(CC3)CC(N(C)c3ccc5cc(-c6ccccc6O)nnc5c3)C4)no2)C(C)C)cc1 [Compound 122, (2S,4R)-4-hydroxy-1-((R)-2-(3-(2-((3-(2-hydroxyphenyl)cinnolin-7-yl)(methyl)amino)-7-azaspiro[3.5]nonan-7-yl)isoxazol-5-yl)-3-methylbutanoyl)-N-((S)-1-(4-(4-methylthiazol-5-yl)phenyl)ethyl)pyrrolidine-2-carboxamide] | A (“A” indicates maximum degradation ≥75%)
14 | < 10 | > 75 | < 10 | Cc1ncsc1-c1ccc([C@H](C)NC(=O)[C@@H]2C[C@@H](O)CN2C(=O)[C@@H](c2cc(N3CCN([C@H]4CCN(c5ccc6nnc(-c7ccccc7O)cc6c5)CC4(F)F)CC3)no2)C(C)C)cc1 [Compound 123, (2S,4R)-1-((R)-2-(3-(4-((S)-3,3-difluoro-1-(3-(2-hydroxyphenyl)cinnolin-6-yl)piperidin-4-yl)piperazin-1-yl)isoxazol-5-yl)-3-methylbutanoyl)-4-hydroxy-N-((S)-1-(4-(4-methylthiazol-5-yl)phenyl)ethyl)pyrrolidine-2-carboxamide] | A (“A” indicates maximum degradation ≥75%)
